Source: patent US20090018111A1, “Novel Antimicrobial Medicament” (priority 2004, published 2009)
Where two headings read alike, the source gives them in different places.

Assays:
Assay in all cases: Sensitivity test (agar dilution)
S. epidermidis IAM1296 = format: cell-based, Staphylococcus epidermidis
Method in brief: (§1)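 Standard Japanese agar dilution method. Drugs alone or combined were serially halved in Mueller Hinton agar, inoculated with overnight (37° C) cultures at about 10^6 CFU/ml. Values are MICs.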

M. luteus ATCC9341 = format: cell-based, Micrococcus luteus; conditions: Micrococcus luteus
Method in brief: as §1

Str. pyogenes Cook = format: cell-based, Streptococcus pyogenes; conditions: Streptococcus pyogenes
Method in brief: as §1

E. faecalis ATCC19433 = format: cell-based, Enterococcus faecalis; conditions: Enterococcus faecalis, E. faecalis ATCC19433, read-out: MIC concomitant
Method in brief: as §1

Question: With `C[C@H]1C=C(c2csc(SC3=C(C(=O)O)N4C(=O)[C@H]([C@@H](C)O)[C@H]4[C@H]3C)n2)CN1` [SM, (4R,5S,6S)-6-[(1R)-1-Hydroxyethyl]-4-methyl-3-({4-[(5S)-5-methyl-2,5-dihydro-1H-pyrrol-3-yl]-1,3-thiazol-2-yl}sulfanyl)-7-oxo-1-azabicyclo[3.2.0]hept-2-ene-2-carboxylic acid] as the molecule, how does the MIC (S. epidermidis IAM1296; Staphylococcus epidermidis, IAM1296, Concomitant (AZT:SM = 1:1), S. epidermidis IAM1296, read-out: MIC concomitant) read?
Answer: 0.031 µg/mL

Question: And the MIC (S. epidermidis IAM1296; Staphylococcus epidermidis, IAM1296, Concomitant (BIPM:SM = 1:1), S. epidermidis IAM1296, read-out: MIC concomitant)?
Answer: 0.031 µg/mL

Question: What about the MIC (S. epidermidis IAM1296; Staphylococcus epidermidis, IAM1296, Concomitant (CAZ:SM = 1:1), S. epidermidis IAM1296, read-out: MIC concomitant) of the same molecule?
Answer: 0.031 µg/mL

Question: And the MIC (S. epidermidis IAM1296; Staphylococcus epidermidis, IAM1296, Concomitant (CPFX:SM = 1:1), S. epidermidis IAM1296, read-out: MIC concomitant)?
Answer: 0.031 µg/mL

Question: What about the MIC (S. epidermidis IAM1296; Staphylococcus epidermidis, IAM1296, Concomitant (DRPM:SM = 1:1), S. epidermidis IAM1296, read-out: MIC concomitant) of the same molecule?
Answer: 0.031 µg/mL

Question: What about the MIC (S. epidermidis IAM1296; Staphylococcus epidermidis, IAM1296, Concomitant (IPM:SM = 1:1), read-out: MIC) of the same molecule?
Answer: 0.016 µg/mL

Question: What about the MIC (S. epidermidis IAM1296; Staphylococcus epidermidis, IAM1296, Concomitant (MEPM:SM = 1:1), read-out: MIC) of the same molecule?
Answer: ≤ 0.016 µg/mL

Question: What about the MIC (S. epidermidis IAM1296; Staphylococcus epidermidis, IAM1296, Concomitant (MEPM:SM = 1:2), read-out: MIC) of the same molecule?
Answer: ≤ 0.031 µg/mL

Question: And the MIC (S. epidermidis IAM1296; Staphylococcus epidermidis, IAM1296, Concomitant (MEPM:SM = 1:4), read-out: MIC)?
Answer: ≤ 0.063 µg/mL

Question: And the MIC (S. epidermidis IAM1296; Staphylococcus epidermidis, IAM1296, Concomitant (PAPM:SM = 1:1), S. epidermidis IAM1296, read-out: MIC concomitant)?
Answer: 0.016 µg/mL

Question: What about the MIC (S. epidermidis IAM1296; Staphylococcus epidermidis, IAM1296, Concomitant (PIPC:SM = 1:1), S. epidermidis IAM1296, read-out: MIC concomitant) of the same molecule?
Answer: 0.016 µg/mL

Question: What about the MIC (S. epidermidis IAM1296; Staphylococcus epidermidis, IAM1296, Concomitant drug (MEPM:SM = 2:1), read-out: MIC) of the same molecule?
Answer: 0.031 µg/mL

Question: What about the MIC (S. epidermidis IAM1296; Staphylococcus epidermidis, IAM1296, alone, read-out: MIC) of the same molecule?
Answer: 0.016 µg/mL

Question: What about the MIC (S. epidermidis IAM1296; Staphylococcus epidermidis, IAM1296, drug alone, S. epidermidis IAM1296, read-out: MIC alone) of the same molecule?
Answer: 0.031 µg/mL

Question: And the MIC (S. epidermidis IAM1296; alone)?
Answer: 0.031 µg/mL

Question: What about the MIC alone (S. epidermidis IAM1296; drug alone, S. epidermidis IAM1296) of the same molecule?
Answer: 0.016 µg/mL

Question: And the MIC (M. luteus ATCC9341; ATCC9341, Concomitant (AZT:SM = 1:1), M. luteus ATCC9341, read-out: MIC concomitant)?
Answer: ≤ 0.002 µg/mL

Question: And the MIC (M. luteus ATCC9341; ATCC9341, Concomitant (BIPM:SM = 1:1), M. luteus ATCC9341, read-out: MIC concomitant)?
Answer: 0.004 µg/mL

Question: And the MIC (M. luteus ATCC9341; ATCC9341, Concomitant (CAZ:SM = 1:1), M. luteus ATCC9341, read-out: MIC concomitant)?
Answer: ≤ 0.002 µg/mL

Question: What about the MIC (M. luteus ATCC9341; ATCC9341, Concomitant (CPFX:SM = 1:1), M. luteus ATCC9341, read-out: MIC concomitant) of the same molecule?
Answer: 0.004 µg/mL

Question: What about the MIC (M. luteus ATCC9341; ATCC9341, Concomitant (DRPM:SM = 1:1), M. luteus ATCC9341, read-out: MIC concomitant) of the same molecule?
Answer: ≤ 0.002 µg/mL

Question: What about the MIC (M. luteus ATCC9341; ATCC9341, Concomitant (IPM:SM = 1:1), read-out: MIC) of the same molecule?
Answer: 0.004 µg/mL

Question: What about the MIC (M. luteus ATCC9341; ATCC9341, Concomitant (MEPM:SM = 1:1), read-out: MIC) of the same molecule?
Answer: ≤ 0.016 µg/mL

Question: What about the MIC (M. luteus ATCC9341; ATCC9341, Concomitant (MEPM:SM = 1:2), read-out: MIC) of the same molecule?
Answer: ≤ 0.031 µg/mL

Question: What about the MIC (M. luteus ATCC9341; ATCC9341, Concomitant (MEPM:SM = 1:4), read-out: MIC) of the same molecule?
Answer: ≤ 0.063 µg/mL

Question: What about the MIC (M. luteus ATCC9341; ATCC9341, Concomitant (PAPM:SM = 1:1), M. luteus ATCC9341, read-out: MIC concomitant) of the same molecule?
Answer: ≤ 0.002 µg/mL

Question: And the MIC (M. luteus ATCC9341; ATCC9341, Concomitant (PIPC:SM = 1:1), M. luteus ATCC9341, read-out: MIC concomitant)?
Answer: ≤ 0.002 µg/mL

Question: What about the MIC (M. luteus ATCC9341; ATCC9341, Concomitant drug (MEPM:SM = 2:1), read-out: MIC) of the same molecule?
Answer: ≤ 0.008 µg/mL

Question: What about the MIC (M. luteus ATCC9341; ATCC9341, alone, read-out: MIC) of the same molecule?
Answer: ≤ 0.008 µg/mL

Question: And the MIC (M. luteus ATCC9341; ATCC9341, drug alone, M. luteus ATCC9341, read-out: MIC alone)?
Answer: 0.004 µg/mL

Question: What about the MIC (Str. pyogenes Cook; Concomitant (AZT:SM = 1:1), Str. pyogenes Cook, read-out: MIC concomitant) of the same molecule?
Answer: 0.004 µg/mL

Question: What about the MIC (Str. pyogenes Cook; Concomitant (BIPM:SM = 1:1), Str. pyogenes Cook, read-out: MIC concomitant) of the same molecule?
Answer: 0.004 µg/mL

Question: What about the MIC (Str. pyogenes Cook; Concomitant (CAZ:SM = 1:1), Str. pyogenes Cook, read-out: MIC concomitant) of the same molecule?
Answer: 0.004 µg/mL

Question: What about the MIC (Str. pyogenes Cook; Concomitant (CPFX:SM = 1:1), Str. pyogenes Cook, read-out: MIC concomitant) of the same molecule?
Answer: 0.004 µg/mL

Question: And the MIC (Str. pyogenes Cook; Concomitant (DRPM:SM = 1:1), Str. pyogenes Cook, read-out: MIC concomitant)?
Answer: ≤ 0.002 µg/mL

Question: What about the MIC (Str. pyogenes Cook; Concomitant (IPM:SM = 1:1), read-out: MIC) of the same molecule?
Answer: ≤ 0.002 µg/mL

Question: And the MIC (Str. pyogenes Cook; Concomitant (MEPM:SM = 1:1), read-out: MIC)?
Answer: ≤ 0.016 µg/mL

Question: And the MIC (Str. pyogenes Cook; Concomitant (MEPM:SM = 1:2), read-out: MIC)?
Answer: ≤ 0.031 µg/mL

Question: And the MIC (Str. pyogenes Cook; Concomitant (MEPM:SM = 1:4), read-out: MIC)?
Answer: ≤ 0.063 µg/mL

Question: And the MIC (Str. pyogenes Cook; Concomitant (PAPM:SM = 1:1), Str. pyogenes Cook, read-out: MIC concomitant)?
Answer: ≤ 0.002 µg/mL

Question: And the MIC (Str. pyogenes Cook; Concomitant (PIPC:SM = 1:1), Str. pyogenes Cook, read-out: MIC concomitant)?
Answer: ≤ 0.002 µg/mL

Question: What about the MIC (Str. pyogenes Cook; Concomitant drug (MEPM:SM = 2:1), read-out: MIC) of the same molecule?
Answer: ≤ 0.008 µg/mL

Question: And the MIC (Str. pyogenes Cook; alone, read-out: MIC)?
Answer: ≤ 0.008 µg/mL

Question: And the MIC (Str. pyogenes Cook; drug alone, Str. pyogenes Cook, read-out: MIC alone)?
Answer: 0.004 µg/mL

Question: What about the MIC (E. faecalis ATCC19433; ATCC19433, Concomitant (AZT:SM = 1:1)) of the same molecule?
Answer: 1 µg/mL

Question: What about the MIC (E. faecalis ATCC19433; ATCC19433, Concomitant (BIPM:SM = 1:1)) of the same molecule?
Answer: 1 µg/mL
